Laboratory results from US20240216381A1, “Px-cholorogenic Acid Comps” (PX ING, LLC, priority 2022, published 2024).

Key:
[1] = tested on: Scopolamine induced amnesia in rats; experiment: Cognitive enhancing effect, Elevated Plus Maze, Scopolamine induced amnesia in rats; type: in vivo, Swiss Albino Wistar rats; settings: for rat escape latency, Elevated Plus Maze: oral daily for ten days, day 10, 30 min before 1 mg/kg Scopolamine i.p., 50 mg HED PX or 1-MX, 25 mg HED CA; for rat escape latency, Elevated Plus Maze, Improvement over P-Control: vs Pathological Control (Scopolamine)
Description: (§1) The example was to evaluate the effect of the test substances on behavioral activity/memory enhancing activity in experimental rats.
(§2) The rats were randomized into nine groups containing eight rats in each group. […] The rats were treated with test substances daily for ten consecutive days.
(§3) On the tenth day test, test substances were administered orally thirty minutes before a 1 mg/kg body weight Scopolamine injection to induce amnesia in rats to all groups except control group. Administration of the Scopolamine injections were done via intraperitoneal injection. This was followed by behavioral test using Elevated Plus Maze apparatus to measure the long-term memory enhancing activity.

[2] = tested on: Scopolamine induced amnesia in rats; experiment: Cognitive enhancing effect, Morris Water Maze, Scopolamine induced amnesia in rats; type: in vivo, Swiss Albino Wistar rats; settings: for rat escape latency, Morris Water Maze: oral daily for ten days, day 10, 30 min before 1 mg/kg Scopolamine i.p., 50 mg HED PX or 1-MX, 25 mg HED CA; for rat escape latency, Morris Water Maze, Improvement over P-Control: vs Pathological Control (Scopolamine)
Description: as §1, §2
as §3, with “Morris Water” for “Elevated Plus”

brain biomarkers [3] = experiment: Brain biomarkers in rats of the Morris Water Maze example; type: in vivo, Swiss Albino Wistar rats; design: Achetylcholine, Improvement over P-Control / Dopamine, Improvement over P-Control / Glutathione, Improvement over P-Control: concentration or dose not given beside the values; settings: for Achetylcholine, brain biomarker / Dopamine, brain biomarker / Glutathione, brain biomarker: oral ten days, Scopolamine 1 mg/kg; for Achetylcholine, Improvement over P-Control / Dopamine, Improvement over P-Control / Glutathione, Improvement over P-Control: vs Pathological Control (Scopolamine)
Description: as §2
as §3, with “Morris Water” for “Elevated Plus”
(§4) Several brain biomarkers were also measured in the rats.

[4] = tested on: Pentobarbital Sodium induced sleep activity in experimental mice; experiment: Pentobarbital Sodium induced sleep activity in mice; type: in vivo, Swiss Albino Mice; settings: 50 mg HED PX or 1-MX, 25 mg HED CA; for Duration of sleep / Onset time of sleep: test substance intraperitoneal 30 min before 40 mg/kg Pentobarbital sodium; for Duration of sleep, Improvement over P-Control / Onset time of sleep, Improvement over P-Control: vs Pathological Control
Description: The present example was conducted to evaluate the efficacy of test substances on Pentobarbital Sodium induced sleep activity in experimental mice.
The mice were randomized into nine groups containing eight mice in each group. […] The dose information can be found below in Table 2.
On the day of experiment, mice from different groups were treated with the control and test substances respectively. After thirty minutes, all groups of mice, except for the Normal Control group were, administered with 40 mg/kg body doses of Pentobarbital sodium to induce sleep. Administration of the test substances was done via intraperitoneal injection. The onset time of sleep was recorded for all the mice. After induction of sleep, mice were placed in the inverted position and when sedation was over, time point where the mice return to its normal posture was noted. The time interval between dosing and start of sleep was recorded as latency time.

brain biomarkers [5] = experiment: Brain biomarkers in rats of the Elevated Plus Maze example; type: in vivo, Swiss Albino Wistar rats; design: Achetylcholine, Improvement over P-Control / Dopamine, Improvement over P-Control / Glutathione, Improvement over P-Control / Catalse, Improvement over P-Control / BDNF, Improvement over P-Control / Serotonin, Improvement over P-Control / Cortisol, Improvement over P-Control: concentration or dose not given beside the values; settings: for Achetylcholine, brain biomarker / BDNF, brain biomarker / Catalse, brain biomarker / Cortisol, brain biomarker / Dopamine, brain biomarker / Glutathione, brain biomarker / Serotonin, brain biomarker: oral ten days, Scopolamine 1 mg/kg; for Achetylcholine, Improvement over P-Control / BDNF, Improvement over P-Control / Catalse, Improvement over P-Control / Cortisol, Improvement over P-Control / Dopamine, Improvement over P-Control / Glutathione, Improvement over P-Control / Serotonin, Improvement over P-Control: vs Pathological Control (Scopolamine)
Description: as §2, §3, §4

| SMILES | rat escape latency, Elevated Plus Maze [1] [s] | rat escape latency, Elevated Plus Maze, Improvement over P-Control [1] [%] | rat escape latency, Morris Water Maze [2] [s] | rat escape latency, Morris Water Maze, Improvement over P-Control [2] [%] | Achetylcholine, brain biomarker (brain biomarkers [3]) [U/ml] | Dopamine, brain biomarker (brain biomarkers [3]) [ng/L] | Glutathione, brain biomarker (brain biomarkers [3]) [µg/mL] | Achetylcholine, Improvement over P-Control (brain biomarkers [3]) [%] | Dopamine, Improvement over P-Control (brain biomarkers [3]) [%] | Glutathione, Improvement over P-Control (brain biomarkers [3]) [%] | Duration of sleep [4] [min] | Onset time of sleep [4] [min] | Duration of sleep, Improvement over P-Control [4] [%] | Onset time of sleep, Improvement over P-Control [4] [%] | Achetylcholine, brain biomarker (brain biomarkers [5]) [U/ml] | BDNF, brain biomarker (brain biomarkers [5]) [pg/mL] | Catalse, brain biomarker (brain biomarkers [5]) [U/mL] | Cortisol, brain biomarker (brain biomarkers [5]) [ng/mL] | Dopamine, brain biomarker (brain biomarkers [5]) [ng/L] | Glutathione, brain biomarker (brain biomarkers [5]) [µg/mL] | further results |
| --- | --- | --- | --- | --- | --- | --- | --- | --- | --- | --- | --- | --- | --- | --- | --- | --- | --- | --- | --- | --- | --- |
| Cn1c(=O)[nH]c2nc[nH]c2c1=O [1-Methylxanthine, 1-methylxanthine] | 33.89 | 49 | 32.43 | 51 | 30.87 | 13.66 | 16.06 | 53 | 33 | 34 | 57.75 | 42.25 | 107 | −16 | 28.97 | 17.29 | 155.96 | 79.4 | 14.51 | 17.94 | Serotonin, brain biomarker (brain biomarkers [5]): 41.63 ng/mL; Achetylcholine, Improvement over P-Control (brain biomarkers [5]): 34%; BDNF, Improvement over P-Control (brain biomarkers [5]): 31%; Catalse, Improvement over P-Control (brain biomarkers [5]): 29%; Cortisol, Improvement over P-Control (brain biomarkers [5]): −12%; Dopamine, Improvement over P-Control (brain biomarkers [5]): 25%; Glutathione, Improvement over P-Control (brain biomarkers [5]): 32%; Serotonin, Improvement over P-Control (brain biomarkers [5]): −12% |
| O=C(/C=C/c1ccc(O)c(O)c1)O[C@@H]1C[C@](O)(C(=O)O)C[C@@H](O)[C@H]1O [Chlorogenic acid] | 30 | 68 | 28.54 | 72 | 33.03 | 14.74 | 16.85 | 63 | 43 | 41 | 74.88 | 40.5 | 169 | −20 | 33.17 | 18.05 | 161.91 | 68.51 | 15.58 | 19.89 | Serotonin, brain biomarker (brain biomarkers [5]): 38.43 ng/mL; Achetylcholine, Improvement over P-Control (brain biomarkers [5]): 54%; BDNF, Improvement over P-Control (brain biomarkers [5]): 37%; Catalse, Improvement over P-Control (brain biomarkers [5]): 34%; Cortisol, Improvement over P-Control (brain biomarkers [5]): −24%; Dopamine, Improvement over P-Control (brain biomarkers [5]): 34%; Glutathione, Improvement over P-Control (brain biomarkers [5]): 46%; Serotonin, Improvement over P-Control (brain biomarkers [5]): −19% |
| Cn1c(=O)[nH]c2ncn(C)c2c1=O [Paraxanthine] | 36.66 | 38 | 30.46 | 61 | 34.16 | 14.21 | 17.47 | 69 | 38 | 46 | 66.13 | 41.5 | 137 | −18 | 32.04 | 17.72 | 159.83 | 73.99 | 15.06 | 19.57 | Serotonin, brain biomarker (brain biomarkers [5]): 38.03 ng/mL; Achetylcholine, Improvement over P-Control (brain biomarkers [5]): 49%; BDNF, Improvement over P-Control (brain biomarkers [5]): 34%; Catalse, Improvement over P-Control (brain biomarkers [5]): 32%; Cortisol, Improvement over P-Control (brain biomarkers [5]): −18%; Dopamine, Improvement over P-Control (brain biomarkers [5]): 30%; Glutathione, Improvement over P-Control (brain biomarkers [5]): 44%; Serotonin, Improvement over P-Control (brain biomarkers [5]): −20% |
